Measured values: US20040023840A1, “Combination of organic compounds” (priority 2003, published 2004)
Like-named read-outs stand apart in the source and are kept apart here.

Legend:
[1] = tested on: SHR with endothelial dysfunction; test: Survival of SHR with chronic NO synthase blockade (L-NAME), endothelial dysfunction model; type: in vivo, rat; details: for survival rate: SHR + L-NAME 12 weeks; for kidney lesions / proteinuria: low doses of valsartan and enalapril
Procedure: Male 20-24 week-old SHR, purchased from RCC Ldt (Fullingsdorf, Switzerland), are maintained in a temperature- and light-controlled room with free access to rat chow (Nafag 9331, Gossau, Switzerland) and tap water. The experiment is p rformed in accordance with the NIH guidelines and approved by the Canton Veterinary office (Bew 161, Kantonales V t rin{overscore (a)}ramt, Liestal, Switzerland). All rats are treated with the NO synthase inhibitor L-NAME (Sigma Chemicals) administered in drinking water (50 mg/l) for 12 weeks. The average daily dose of L-NAME calculated from the water consumed was 2.5 mg/kg/d (range 2.1-2.7).
(§1) The rats are divided into 5 groups: group 1, control (n=40); Group 2, valsartan (val5, 5 mg/kg/d; n=40); Group 3, enalapril (ena1, 1 mg/kg/d; n=30); Group 4, a combination (ena1val5) of enalapril (1 mg/kg/d) and valsartan (5 mg/kg/d); n=30) and Group 5, valsartan (val50, 50 mg/kg/d; n=30). The drugs are administered in drinking fluid. […] The pressor effect of Ang II at […] obtained in controls normotensive rats is reduced by 49% and 73% after treatment with valsartan 5 and 50 mg/kg/d, respectively (Gervais et al. 1999). The response to Ang I injected in Wistar Kyoto rats pretreated with enalapril 1 mg/kg/d or valsartan 5 mg/kg/d is similar.
Body weight is measured every week. Systolic blood pressure and heart rate are recorded by tail cuff plethysmography 3 and 2 weeks before starting the study and at 2 weeks after drug administration. Urine is collected over a 24 hour period from rats kept in individual (metabolic) cages the week before starting treatment and at weeks 4 and 12 for volume measurement and protein, creatinine, sodium and potassium determination using standard laboratory methods. At the same time points, blood samples are withdrawn from the retro-orbital plexus (maximum 1 ml) for creatinine, Na^+ and K^+ assays.
Ten rats from each group are sacrificed at 4 weeks for collection of kidney and heart for morphological analysis. The remaining rats are sacrificed at 12 weeks. Cardiac and kidney weight is recorded. Terminal blood sampling is performed in 5% EDTA at 4 (morphometry study) and 12 (end of the study) weeks for aldosterone, determination by radioimmunoassay using a DPC coat-a-count aldosterone-RIA kit (Bühlmann, Switzerland).
All data are expressed as mean±SEM. Statistical analysis is performed using a one-way ANOVA, followed by a Duncan's multiple range test and a Newman-Keuls test, 7 for comparison between the different groups. Results with a probability value of less than 0.05 are deemed statistically significant.

response to Ang I = test: Response to Ang I injected in pretreated Wistar Kyoto rats; type: in vivo, rat; details: Wistar Kyoto rats pretreated with enalapril 1 mg/kg/d or valsartan 5 mg/kg/d; the two compared
Procedure: as §1

pressor effect of Ang II = details: Ang II at 1 mg/kg, normotensive rats, cited from earlier work
[2] = non-blood pressure reducing doses in drinking fluid: valsartan 5 mg/kg/d, enalapril 1 mg/kg/d, or both combined

| SMILES | survival rate ([1]; high dose valsartan 50 mg/kg/d in drinking fluid) | survival rate [1, 2] | kidney lesions ([1]; SHR + L-NAME) | proteinuria ([1]; SHR + L-NAME) | systolic blood pressure ([1]; SHR + L-NAME, valsartan 50 mg/kg, increase in blood pressure significantly attenuated) | response to Ang I (response to Ang I) | reduction of pressor effect of Ang II (pressor effect of Ang II; valsartan 5 mg/kg/d (Gervais et al. 1999)) | reduction of pressor effect of Ang II (pressor effect of Ang II; valsartan 50 mg/kg/d (Gervais et al. 1999)) |
| --- | --- | --- | --- | --- | --- | --- | --- | --- |
| CCCCC(=O)N(Cc1ccc(-c2ccccc2-c2nnn[nH]2)cc1)[C@H](C(=O)O)C(C)C [valsartan] | 95% | 67% | no reduction | no decrease | above 250 mmHg | similar | 49% | 73% |
| CCOC(=O)[C@H](CCc1ccccc1)N[C@@H](C)C(=O)N1CCC[C@H]1C(=O)O [enalapril] | – | 55% | no reduction | no decrease | – | similar | – | – |
